In patent US8415469B2, “Compounds and methods for kinase modulation, and indications therefor” (Plexxikon Inc., priority 2005, dated 2013):
pIC50: −log10 of the molar value.

What was measured:
Type in all cases: biochemical
Gsk3β = Gsk3β (Homo sapiens, UniProt P49841); assay: AlphaScreen kinase assay, Gsk3β; conditions: read-out: IC50, activity toward kinase Gsk3β
Procedure, shortened: (§1)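 Biotinylated peptide substrate phosphorylation detected by AlphaScreen with phospho-specific antibody acceptor beads and streptavidin donor beads. Compounds tested as 8-point 1:3 serial dilutions from 20 mM DMSO stocks.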

Kit = molecular target: T1, Kit (Homo sapiens, UniProt P10721); assay: AlphaScreen kinase assay, Kit; conditions: read-out: IC50, activity toward kinase Kit
T1 construct: P1332.N6 BI PTP KIT M552-K948-X COD; His6 (N); made in house; host or cells: E. coli (PTP1B co-expressed)

MAPKAPK2 = molecular target: T2, MAPKAPK2 (Homo sapiens, UniProt P49137); assay: Z'-Lyte FRET kinase assay (Invitrogen), MAPKAPK2; conditions: read-out: IC50, activity toward kinase MAPKAPK2
T2 construct: purchased Invitrogen (assay run by Invitrogen)
Description: The effect of potential modulators of kinase activity can be measured in a variety of different assays known in the art. For example, direct radiometric, indirect FRET or AlphaScreen assays may be used to assess the level of phosphorylation of a substrate in the presence of test compounds in order to determine the inhibitory affect of the compound on the kinase. Invitrogen (Carlsbad, Calif.) uses a FRET based assay for Btk, EGFR, EphB2, Flt3, lrak4, Kdr, MAP2K1, MAPKAPK2, PDGFRB, PKC theta, Stk6 and Yes. For these assays, compounds of the invention were screened by Invitrogen using Z′-Lyte™ kinase assay.
Briefly, the Invitrogen kinase assay involves use of a specific peptide substrate optimized for each kinase, containing a fluorophore at each end that make up the FRET pair. The peptide sensitivity to proteolytic cleavage depends on phosphorylation of the peptide. Non-phosphorylated peptide is cleaved by a protease while peptide phosphorylated by the kinase is not cleaved. Cleavage of the peptide disrupts the FRET between the donor (coumarin) and acceptor (fluorescein) fluorophores, resulting in an increase in the ratio of donor emission to acceptor emission. The emission ratio of coumarin to fluorescein is used to assess the reaction progress. The extent of phosphorylation is determined from the emission ratio, which is low when the kinase is active (phosphorylated peptide is not cleaved, FRET pair connected) or higher for inhibited kinase (non-phosphorylated peptide is cleaved, FRET pair separated). Thus, the assay involves a kinase reaction in the presence of varying concentrations of a given compound, a development reaction with site specific protease, and detection of the fluorescent emission ratio of coumarin and fluorscein. […] Reaction conditions for each kinase are determined to provide optimal reaction times, incubation temperature, kinase and ATP concentrations. Test samples are made up in 1× kinase buffer (50 mM HEPES pH 7.5, 50 mM MgCl2, 5 mM EGTA, 0.05% BRIJ-35) and compound at desired concentration prepared in DMSO such that the final DMSO is 1%. […] Typically, assay plates are prepared to 10 μl final volume per sample, adding 2.5 μl of compound at 4× the desired concentration in 4% DMSO (serial dilution of compound provides concentration curve), 5 μl of the desired kinase mixed with Z′-LYTE™ peptide substrate (2× in 2× kinase buffer, final peptide at 2 μM), and 2.5 μl of 4×ATP solution. All kinase except for MAP2K1 were at 10 μM ATP in the kinase reaction, while MAP2K1 was at 100 μM. Samples are mixed and the kinase reaction is incubated 1 hour at room temperature, after which 5 μl of development solution is added and mixed. After incubation for another 1 hour at room temperature, 5 μl of stop reagent is added to each sample and mixed. The fluorescence signals are measured to determine the emission ratio.

Stk6 = molecular target: T3, Stk6 (Homo sapiens, UniProt O14965); assay: Z'-Lyte FRET kinase assay (Invitrogen), Stk6; conditions: read-out: IC50, activity toward kinase Stk6
T3 construct: purchased Invitrogen (Carlsbad, Calif.), screening service
T3 sequence (O14965 1-403): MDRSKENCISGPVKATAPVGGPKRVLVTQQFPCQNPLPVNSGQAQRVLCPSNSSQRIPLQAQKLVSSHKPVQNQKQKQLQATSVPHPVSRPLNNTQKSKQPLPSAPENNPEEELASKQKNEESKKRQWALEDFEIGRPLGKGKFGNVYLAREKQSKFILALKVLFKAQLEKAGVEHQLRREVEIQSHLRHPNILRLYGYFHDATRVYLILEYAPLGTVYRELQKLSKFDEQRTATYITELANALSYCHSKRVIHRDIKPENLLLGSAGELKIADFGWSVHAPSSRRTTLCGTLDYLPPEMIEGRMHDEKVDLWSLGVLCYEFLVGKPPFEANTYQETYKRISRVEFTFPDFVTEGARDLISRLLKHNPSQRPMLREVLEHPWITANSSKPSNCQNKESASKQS

Pyk2 = molecular target: T4, Pyk2 (Homo sapiens, UniProt Q14289); assay: AlphaScreen kinase assay, Pyk2; conditions: read-out: IC50, activity toward kinase Pyk2
T4 construct: purchased Upstate Biotechnology
Description: AlphaScreen assays were done using compounds dissolved in DMSO to a concentration of 20 mM. The compounds were diluted accordingly to the desired final concentrations in each sample well, using 1:3 serial dilution for a total of 8 concentration points. Plates were prepared such that each kinase reaction is 20 μl in 1× kinase buffer, 5% DMSO and 10 μM ATP. After incubation of the kinase reaction for 1 hour at room temperature, 5 μl of donor beads in stop buffer (50 mM EDTA in 1× kinase buffer) was added, the sample was mixed and incubated for 20 minutes at room temperature before adding 5 μl of acceptor beads in stop buffer. The samples were incubated for 60 minutes at room temperature and the signal per well was read on AlphaQuest reader.

Kdr = molecular target: T5, Kdr (Homo sapiens, UniProt P35968); assay: Z'-Lyte FRET kinase assay (Invitrogen), Kdr; conditions: read-out: IC50, activity toward kinase Kdr
T5 construct: purchased Invitrogen (assay run by Invitrogen)
Description: For example, direct radiometric, indirect FRET or AlphaScreen assays may be used to assess the level of phosphorylation of a substrate in the presence of test compounds in order to determine the inhibitory affect of the compound on the kinase. […] For these assays, compounds of the invention were screened by Invitrogen using Z′-Lyte™ kinase assay.
Briefly, the Invitrogen kinase assay involves use of a specific peptide substrate optimized for each kinase, containing a fluorophore at each end that make up the FRET pair. The peptide sensitivity to proteolytic cleavage depends on phosphorylation of the peptide. Non-phosphorylated peptide is cleaved by a protease while peptide phosphorylated by the kinase is not cleaved. Cleavage of the peptide disrupts the FRET between the donor (coumarin) and acceptor (fluorescein) fluorophores, resulting in an increase in the ratio of donor emission to acceptor emission. The emission ratio of coumarin to fluorescein is used to assess the reaction progress. […] Thus, the assay involves a kinase reaction in the presence of varying concentrations of a given compound, a development reaction with site specific protease, and detection of the fluorescent emission ratio of coumarin and fluorscein. […] Reaction conditions for each kinase are determined to provide optimal reaction times, incubation temperature, kinase and ATP concentrations. Test samples are made up in 1× kinase buffer (50 mM HEPES pH 7.5, 50 mM MgCl2, 5 mM EGTA, 0.05% BRIJ-35) and compound at desired concentration prepared in DMSO such that the final DMSO is 1%. […] All kinase except for MAP2K1 were at 10 μM ATP in the kinase reaction, while MAP2K1 was at 100 μM. Samples are mixed and the kinase reaction is incubated 1 hour at room temperature, after which 5 μl of development solution is added and mixed. After incubation for another 1 hour at room temperature, 5 μl of stop reagent is added to each sample and mixed. The fluorescence signals are measured to determine the emission ratio.

IKK beta = molecular target: T6, IKK beta (Homo sapiens, UniProt O14920); assay: AlphaScreen kinase assay, IKK beta; conditions: read-out: IC50, activity toward kinase IKK beta
T6 sequence (O14920 1-756): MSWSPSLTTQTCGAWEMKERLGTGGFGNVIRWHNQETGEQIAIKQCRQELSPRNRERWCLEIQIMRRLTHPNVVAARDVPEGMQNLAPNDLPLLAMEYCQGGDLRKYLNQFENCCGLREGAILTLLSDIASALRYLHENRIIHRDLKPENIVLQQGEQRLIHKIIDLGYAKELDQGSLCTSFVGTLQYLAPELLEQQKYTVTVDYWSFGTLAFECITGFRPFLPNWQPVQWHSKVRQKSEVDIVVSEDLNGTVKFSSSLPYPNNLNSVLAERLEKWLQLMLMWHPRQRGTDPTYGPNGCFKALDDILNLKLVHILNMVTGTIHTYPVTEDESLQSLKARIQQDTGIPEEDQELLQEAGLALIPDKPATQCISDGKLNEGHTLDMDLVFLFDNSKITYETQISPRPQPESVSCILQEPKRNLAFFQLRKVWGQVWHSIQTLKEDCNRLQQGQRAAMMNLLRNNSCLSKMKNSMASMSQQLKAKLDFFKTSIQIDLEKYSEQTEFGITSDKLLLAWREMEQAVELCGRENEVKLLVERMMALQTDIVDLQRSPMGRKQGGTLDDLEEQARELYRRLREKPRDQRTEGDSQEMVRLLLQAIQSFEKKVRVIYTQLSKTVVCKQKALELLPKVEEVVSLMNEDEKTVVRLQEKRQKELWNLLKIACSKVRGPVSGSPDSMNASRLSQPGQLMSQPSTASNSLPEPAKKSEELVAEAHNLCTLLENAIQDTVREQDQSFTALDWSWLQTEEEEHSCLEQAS

PDGFRA = PDGFRA (Homo sapiens, UniProt P16234); assay: AlphaScreen kinase assay, PDGFRA; conditions: read-out: IC50, activity toward kinase PDGFRA
Description: (§2) AlphaScreen assay was used to screen additional kinases. The assay is similarly dependent on the phosphorylation of a peptide substrate. In this assay, an antibody that recognizes phosphorylated substrate is bound to an acceptor bead. The peptide substrate is attached to biotin, which binds to a donor head that contains streptavidin. Thus phosphorylated substrate is bound by antibody and streptavidin, bringing the donor and acceptor heads into close proximity when kinase is not inhibited. The donor produces singlet oxygen which results in emission from the acceptor when they are in close proximity. Conversely, when kinase is inhibited, the donor and acceptor beads are not associated and the emission from the acceptor is reduced.
(§3) AlphaScreen assays were done using compounds dissolved in DMSO to a concentration of 20 mM. The compounds were diluted accordingly to the desired final concentrations in each sample well, using 1:3 serial dilution for a total of 8 concentration points.

Fak = molecular target: T7, Fak (Homo sapiens, UniProt Q05397); assay: AlphaScreen kinase assay, Fak; conditions: read-out: IC50, activity toward kinase Fak
T7 construct: P1358.pFastBacHtb FAK S411-Q686-X; His6 with pFastBacHTb leader (TEV site) (N); made in house; host or cells: Sf9 (baculovirus)

Src = molecular target: T8, Src (Homo sapiens, UniProt P12931); assay: AlphaScreen kinase assay, Src; conditions: read-out: IC50, activity toward kinase Src
T8 construct: P1144. pET-N6 BI-PTP SRC V86-L536-X; made in house

B-Raf = molecular target: T9, B-Raf (Homo sapiens, UniProt P15056); assay: AlphaScreen kinase assay, B-Raf; conditions: read-out: IC50, activity toward kinase B-Raf
T9 construct: purchased Upstate Biotechnology

FGFR1 = molecular target: T10, FGFR1 (Homo sapiens, UniProt P11362, C488A/C584S); assay: AlphaScreen kinase assay, FGFR1; conditions: read-out: IC50, activity toward kinase FGFR
T10 construct: P1351.pET N6 BI-PTP FGFR A458-E765-X C488A, C584S; made in house; host or cells: E. coli (PTP1B co-expressed)

Brk = Brk (Homo sapiens, UniProt Q13882); assay: AlphaScreen kinase assay, Brk; conditions: read-out: IC50, activity toward kinase Brk
Description: as §2, §3

B-Raf V600E = molecular target: T11, B-Raf V600E (Homo sapiens, UniProt P15056, V600E); assay: AlphaScreen kinase assay, B-Raf V600E; conditions: read-out: IC50, activity toward kinase B-Raf V600E
T11 construct: P4254. pFastBacBD-CDC37 BRAF D437-K722-X, V600E; His6 with pFastBac HT leader (TEV site) (N); made in house; host or cells: Sf9 (baculovirus; chaperone CDC37 co-expressed)

Abl = molecular target: T12, Abl (Homo sapiens, UniProt P00519); assay: AlphaScreen kinase assay, Abl; conditions: read-out: activity toward kinase Abl, IC50
T12 construct: P1121. pET-SPEC BI-PTP Abl G227-V515-X; His6 (N); made in house; host or cells: E. coli (PTP1B co-expressed)
T12 sequence (P00519 with tags, fused parts or gaps): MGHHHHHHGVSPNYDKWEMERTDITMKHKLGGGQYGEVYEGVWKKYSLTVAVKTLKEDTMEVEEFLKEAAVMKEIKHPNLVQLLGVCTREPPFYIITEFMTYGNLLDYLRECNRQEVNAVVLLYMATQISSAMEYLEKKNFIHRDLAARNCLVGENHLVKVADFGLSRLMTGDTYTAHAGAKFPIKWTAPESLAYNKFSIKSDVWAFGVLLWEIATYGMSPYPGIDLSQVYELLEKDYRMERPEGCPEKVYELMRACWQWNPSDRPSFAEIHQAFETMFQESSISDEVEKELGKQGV
Procedure, shortened: as §1

Csk = Csk (Homo sapiens, UniProt P41240); assay: AlphaScreen kinase assay, Csk; conditions: read-out: IC50, activity toward kinase Csk
Description: as §2, §3

c-Raf-1 = molecular target: T13, c-Raf-1 (Homo sapiens, UniProt P04049); assay: AlphaScreen kinase assay, c-Raf-1; conditions: read-out: IC50, activity toward kinase c-Raf-1
T13 construct: purchased Upstate Biotechnology

MAP4K4 = MAP4K4 (Homo sapiens, UniProt O95819); assay: AlphaScreen kinase assay, MAP4K4; conditions: read-out: IC50, activity toward kinase MAP4K4
Fms = molecular target: T14, Fms (Homo sapiens, UniProt P07333); assay: AlphaScreen kinase assay, Fms; conditions: read-out: IC50, activity toward kinase Fms
T14 construct: purchased Upstate Biotechnology

Btk = molecular target: T15, Btk (Homo sapiens, UniProt Q06187); assay: Z'-Lyte FRET kinase assay (Invitrogen), Btk; conditions: read-out: IC50, activity toward kinase Btk
T15 construct: purchased Invitrogen (assay run by Invitrogen)

Frk = Frk (Homo sapiens, UniProt P42685); assay: AlphaScreen kinase assay, Frk; conditions: read-out: IC50, activity toward kinase Frk
Description: as §2, §3

Hck = Hck (Homo sapiens, UniProt P08631); assay: AlphaScreen kinase assay, Hck; conditions: read-out: IC50, activity toward kinase Hck
Description: as §2, §3

Measured: pIC50

T2 sequence (P49137 whole entry): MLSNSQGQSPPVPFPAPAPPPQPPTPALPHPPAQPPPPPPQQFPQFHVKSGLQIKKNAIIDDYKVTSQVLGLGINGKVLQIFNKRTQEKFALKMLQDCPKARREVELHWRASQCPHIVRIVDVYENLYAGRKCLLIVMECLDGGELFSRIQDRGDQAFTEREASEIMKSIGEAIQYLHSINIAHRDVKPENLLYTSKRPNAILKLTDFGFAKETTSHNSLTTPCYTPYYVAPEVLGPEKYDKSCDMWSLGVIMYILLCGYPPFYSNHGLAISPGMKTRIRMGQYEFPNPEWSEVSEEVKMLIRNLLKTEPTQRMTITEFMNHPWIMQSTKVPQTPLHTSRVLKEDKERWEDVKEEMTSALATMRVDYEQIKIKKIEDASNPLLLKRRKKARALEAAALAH
Sequence of Gsk3β (P49841 whole entry): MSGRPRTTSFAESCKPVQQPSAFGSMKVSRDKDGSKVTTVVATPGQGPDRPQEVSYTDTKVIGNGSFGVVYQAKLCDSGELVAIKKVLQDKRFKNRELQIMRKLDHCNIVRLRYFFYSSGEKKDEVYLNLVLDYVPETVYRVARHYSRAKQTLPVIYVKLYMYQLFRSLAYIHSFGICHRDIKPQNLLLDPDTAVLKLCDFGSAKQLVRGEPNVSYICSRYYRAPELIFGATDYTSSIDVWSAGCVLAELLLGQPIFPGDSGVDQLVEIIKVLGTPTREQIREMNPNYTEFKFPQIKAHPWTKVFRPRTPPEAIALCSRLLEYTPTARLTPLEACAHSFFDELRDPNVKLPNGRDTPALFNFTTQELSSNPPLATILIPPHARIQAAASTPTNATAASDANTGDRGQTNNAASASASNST
T1 sequence (P10721 with tags, fused parts or gaps): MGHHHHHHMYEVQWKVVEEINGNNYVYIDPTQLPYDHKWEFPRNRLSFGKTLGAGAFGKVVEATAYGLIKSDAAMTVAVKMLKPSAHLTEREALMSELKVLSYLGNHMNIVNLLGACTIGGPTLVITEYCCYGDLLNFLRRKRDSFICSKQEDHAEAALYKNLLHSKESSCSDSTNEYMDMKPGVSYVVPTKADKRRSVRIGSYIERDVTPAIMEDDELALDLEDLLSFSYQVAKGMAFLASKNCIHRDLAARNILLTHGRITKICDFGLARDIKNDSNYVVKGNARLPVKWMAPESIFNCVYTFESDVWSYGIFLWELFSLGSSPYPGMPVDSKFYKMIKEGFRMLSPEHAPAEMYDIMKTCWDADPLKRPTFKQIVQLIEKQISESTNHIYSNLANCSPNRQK
Sequence of PDGFRA (P16234 24-1089): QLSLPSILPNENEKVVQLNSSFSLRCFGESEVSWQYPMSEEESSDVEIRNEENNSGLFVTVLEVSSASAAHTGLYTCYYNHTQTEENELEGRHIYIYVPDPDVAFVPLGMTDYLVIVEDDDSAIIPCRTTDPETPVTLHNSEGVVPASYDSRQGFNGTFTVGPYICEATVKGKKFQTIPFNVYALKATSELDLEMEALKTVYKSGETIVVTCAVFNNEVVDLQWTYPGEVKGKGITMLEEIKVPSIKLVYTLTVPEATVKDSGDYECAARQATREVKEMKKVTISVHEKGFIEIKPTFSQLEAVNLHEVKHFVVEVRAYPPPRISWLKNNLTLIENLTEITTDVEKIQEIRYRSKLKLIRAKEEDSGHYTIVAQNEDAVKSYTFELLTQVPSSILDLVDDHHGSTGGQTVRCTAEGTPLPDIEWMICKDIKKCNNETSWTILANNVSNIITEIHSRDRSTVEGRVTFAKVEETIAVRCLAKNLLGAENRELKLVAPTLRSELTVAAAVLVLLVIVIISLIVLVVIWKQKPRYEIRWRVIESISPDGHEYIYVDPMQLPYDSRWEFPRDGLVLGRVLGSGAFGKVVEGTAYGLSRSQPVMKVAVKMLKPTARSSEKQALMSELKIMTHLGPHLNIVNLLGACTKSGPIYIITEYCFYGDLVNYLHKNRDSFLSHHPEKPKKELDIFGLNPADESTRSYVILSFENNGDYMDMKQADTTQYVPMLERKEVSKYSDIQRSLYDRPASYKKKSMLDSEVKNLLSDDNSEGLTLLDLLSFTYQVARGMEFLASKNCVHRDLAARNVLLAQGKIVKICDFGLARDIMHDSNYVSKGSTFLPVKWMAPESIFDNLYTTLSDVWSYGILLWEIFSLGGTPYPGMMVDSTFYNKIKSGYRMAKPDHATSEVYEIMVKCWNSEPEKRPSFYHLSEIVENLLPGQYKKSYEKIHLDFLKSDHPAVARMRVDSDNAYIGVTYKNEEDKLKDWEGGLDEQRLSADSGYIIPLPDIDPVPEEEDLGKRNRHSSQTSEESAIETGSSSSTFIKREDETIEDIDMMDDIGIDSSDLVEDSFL
Sequence of Hck (P08631 whole entry): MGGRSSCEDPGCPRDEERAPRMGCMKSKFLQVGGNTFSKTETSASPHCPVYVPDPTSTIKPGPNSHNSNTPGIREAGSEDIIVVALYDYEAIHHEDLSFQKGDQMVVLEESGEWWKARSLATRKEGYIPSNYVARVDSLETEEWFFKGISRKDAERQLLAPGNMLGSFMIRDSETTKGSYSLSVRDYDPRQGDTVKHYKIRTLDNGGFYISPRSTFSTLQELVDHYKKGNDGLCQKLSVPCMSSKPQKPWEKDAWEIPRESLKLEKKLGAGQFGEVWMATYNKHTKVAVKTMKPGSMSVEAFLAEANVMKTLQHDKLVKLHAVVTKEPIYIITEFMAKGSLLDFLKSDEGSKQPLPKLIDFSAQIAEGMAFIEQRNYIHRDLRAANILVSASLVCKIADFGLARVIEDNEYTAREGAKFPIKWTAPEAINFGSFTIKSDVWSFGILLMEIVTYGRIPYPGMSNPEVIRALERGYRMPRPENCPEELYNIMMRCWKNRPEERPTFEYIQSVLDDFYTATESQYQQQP
Sequence of Csk (P41240 whole entry): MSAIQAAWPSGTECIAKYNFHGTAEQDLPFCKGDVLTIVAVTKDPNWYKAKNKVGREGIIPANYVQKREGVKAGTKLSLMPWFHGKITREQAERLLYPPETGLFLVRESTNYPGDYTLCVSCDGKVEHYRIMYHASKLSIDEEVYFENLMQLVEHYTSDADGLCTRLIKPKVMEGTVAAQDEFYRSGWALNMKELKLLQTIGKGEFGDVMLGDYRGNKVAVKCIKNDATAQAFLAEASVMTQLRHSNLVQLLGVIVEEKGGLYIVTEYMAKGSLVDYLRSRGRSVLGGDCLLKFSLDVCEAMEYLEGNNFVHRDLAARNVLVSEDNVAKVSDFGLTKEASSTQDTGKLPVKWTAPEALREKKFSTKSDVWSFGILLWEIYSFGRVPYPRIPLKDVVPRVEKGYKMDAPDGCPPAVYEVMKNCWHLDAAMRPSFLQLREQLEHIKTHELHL
T8 sequence (P12931 with tags, fused parts or gaps): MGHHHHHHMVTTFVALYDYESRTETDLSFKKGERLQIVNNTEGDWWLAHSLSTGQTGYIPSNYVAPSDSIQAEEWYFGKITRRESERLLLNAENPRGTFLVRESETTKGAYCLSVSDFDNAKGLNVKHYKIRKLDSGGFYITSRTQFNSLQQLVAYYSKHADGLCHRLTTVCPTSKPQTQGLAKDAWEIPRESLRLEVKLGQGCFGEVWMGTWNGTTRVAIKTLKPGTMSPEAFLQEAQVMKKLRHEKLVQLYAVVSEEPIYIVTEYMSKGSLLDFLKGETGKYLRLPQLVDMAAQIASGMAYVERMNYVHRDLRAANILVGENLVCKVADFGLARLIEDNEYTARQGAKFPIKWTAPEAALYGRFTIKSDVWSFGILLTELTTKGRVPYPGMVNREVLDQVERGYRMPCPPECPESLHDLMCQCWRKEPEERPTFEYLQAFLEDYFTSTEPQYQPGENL
Sequence of Brk (Q13882 whole entry): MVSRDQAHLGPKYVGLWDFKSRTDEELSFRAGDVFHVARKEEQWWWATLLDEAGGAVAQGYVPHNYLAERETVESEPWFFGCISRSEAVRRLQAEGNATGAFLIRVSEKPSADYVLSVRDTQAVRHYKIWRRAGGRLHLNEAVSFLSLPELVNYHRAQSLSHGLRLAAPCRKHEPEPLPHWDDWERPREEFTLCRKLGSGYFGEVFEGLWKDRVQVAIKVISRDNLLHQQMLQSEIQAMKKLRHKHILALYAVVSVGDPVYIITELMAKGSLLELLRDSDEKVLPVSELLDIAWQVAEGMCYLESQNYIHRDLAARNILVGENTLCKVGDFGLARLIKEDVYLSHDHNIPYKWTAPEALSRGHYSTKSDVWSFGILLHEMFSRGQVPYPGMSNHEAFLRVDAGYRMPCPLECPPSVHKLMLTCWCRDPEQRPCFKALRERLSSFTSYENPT
T7 sequence (Q05397 411-686): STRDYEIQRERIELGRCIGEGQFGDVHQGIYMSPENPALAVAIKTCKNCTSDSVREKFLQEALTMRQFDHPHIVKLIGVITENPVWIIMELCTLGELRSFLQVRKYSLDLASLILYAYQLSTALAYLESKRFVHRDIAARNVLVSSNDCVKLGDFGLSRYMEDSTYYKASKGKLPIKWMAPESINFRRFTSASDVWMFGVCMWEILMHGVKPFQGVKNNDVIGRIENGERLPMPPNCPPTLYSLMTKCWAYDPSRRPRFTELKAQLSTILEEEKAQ
Sequence of Frk (P42685 whole entry): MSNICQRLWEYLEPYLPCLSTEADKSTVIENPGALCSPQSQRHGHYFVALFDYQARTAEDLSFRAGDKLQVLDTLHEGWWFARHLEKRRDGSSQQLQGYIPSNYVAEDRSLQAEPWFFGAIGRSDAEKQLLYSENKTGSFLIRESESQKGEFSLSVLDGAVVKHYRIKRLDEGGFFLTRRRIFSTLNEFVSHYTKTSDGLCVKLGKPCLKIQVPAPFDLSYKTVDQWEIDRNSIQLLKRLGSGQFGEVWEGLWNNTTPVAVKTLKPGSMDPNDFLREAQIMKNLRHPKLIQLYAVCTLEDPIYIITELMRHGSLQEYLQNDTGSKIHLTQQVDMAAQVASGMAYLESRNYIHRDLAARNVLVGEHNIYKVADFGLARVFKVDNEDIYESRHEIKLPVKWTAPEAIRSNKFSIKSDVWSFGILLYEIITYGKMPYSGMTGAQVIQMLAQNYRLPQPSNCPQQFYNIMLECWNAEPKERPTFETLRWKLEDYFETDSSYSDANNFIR

O=C(O)c1ccc(Sc2c[nH]c3ncccc23)nc1 [Compound P-0086]
≥ 5.00: Gsk3β | Kit | MAPKAPK2 | Stk6 | Pyk2 | Kdr | IKK beta

Cc1cccc(-c2ccnc3[nH]cc(Sc4cccs4)c23)c1 [Compound P-0104]
≥ 5.00: Gsk3β | MAPKAPK2 | Stk6

FC(F)(F)c1cccc(-c2ccnc3[nH]cc(Sc4ccncc4)c23)c1 [Compound P-0226]
≥ 5.00: Gsk3β | MAPKAPK2 | Kdr

O=C(c1c(F)ccc(NS(=O)(=O)c2ccccc2)c1F)c1c[nH]c2ncc(Cl)cc12 [Compound P-0885, N-[3-(5-Chloro-1H-pyrrolo[2,3-b]pyridine-3-carbonyl)-2,4-difluorophenyl]-benzenesulfonamide]
not listed: Gsk3β | MAPKAPK2 | Pyk2 | Kdr | IKK beta
≥ 5.00: all other assays above

CCCS(=O)(=O)Nc1ccc(F)c(C(=O)c2c[nH]c3ncc(Cl)cc23)c1F [Compound P-0933, Propane-1-sulfonic acid [3-(5-chloro-1H-pyrrolo[2,3-b]pyridine-3-carbonyl)-2,4-difluoro-phenyl]-amide]
≥ 5.00: PDGFRA | Fak | Src | Kit | FGFR1 | Brk | Stk6 | Csk | MAP4K4 | Frk | Hck
